Measurements reported in patent publication US12728122B2, “Treatment of urothelial and kidney cancers by use of endothelin B receptor antagonists” (ENB Therapeutics, Inc., priority 2019, dated 2026).
“Also recorded” adds a separate entry of the source.

Columns and labels:
[1] = tested on: V600E+ (BRAF mutated) SM1 tumor; assay: Syngeneic melanoma V600E+ (BRAF mutated) SM1 tumor model, tumor volume and IHC; assay type: in vivo, C57BL/6 mice
Method: The syngeneic melanoma model V600E+ (BRAF mutated) SM1 tumor model was used in C57BL/6 mice to assess efficacy of deuterated ETBR antagonists in combination with immunotherapeutics (“B+P”) as compared to a standard treatment, dabrafenib with anti-PD1 (“D+P”). […] In this study 6-8 week old female C57BL/6 mice were inoculated with SM1 tumor fragments (TME* components present). Dosing was initiated when tumors were 150 mm3. The general dosing schemes were as follows: dabrafenib (30 mg/kg daily by oral gavage), immunotherapeutic 10 mg/kg Q4D IP beginning 2 days after dabrafenib), deuterated ETBR antagonist (4 μg administered QOD IV beginning 2 days after dabrafenib). Tumors were measured three times per week, and the study was terminated after 21 days of dosing and IHC analysis of tumors was performed.
TLOs are functionally equivalent to lymph nodes, produce tumor-specific T- and B-cells, and induce long lasting anti-tumor immunity.
FIG. 11 provides table summaries of the results obtained with combination therapies (two- and three-part), TLO formation and efficacy for tumor eradication. The model system tested is as described for FIG. 8. The combinations included dabrafenib+anti-PD1 (“D+P”); dabrafenib+anti-PD1+BQ-788-B (COMPOUND 1) at 0.6 μg (“D+P+B (0.6 μg)”); dabrafenib+anti-PD1+BQ-788-B (COMPOUND 1) at 4.0 μg (“D+P+B (4.0 μg)”); dabrafenib+anti-PD1+BQ-788-B (COMPOUND 1) at 100 μg (“D+P+B (100 μg)”); and anti-PD1+BQ-788-B (COMPOUND 1) at (4.0 μg) (“P+B (4.0 μg)”). […] FIG. 12 presents the efficacy results as a function of tumor volume (mm3).
6 week old female C57BL/6 mice, n=5 per group, were implanted with V600E+ melanoma cancer tumor cells. Once tumors were established, mice were dosed with ETBR antagonists and immune checkpoint inhibitors combination therapy. 21 days post treatment, histological examination was performed, FIG. 20.

[2] = tested on: bladder cancer tumor cells, MB49-PDIRA-220; assay: Syngeneic bladder cancer murine model, tumor volume; assay type: in vivo, C57BL/6 mice; conditions: for anti-bladder cancer treatment efficacy (tumor volume): vs control and single agents
Method: 6 week old female C57BL/6 mice, n=5 per group, were implanted with bladder cancer tumor cells, MB49-PDIRA-220 at the right flank. When tumors reached from about 50 mm^3-75 mm^3 in volume, mice were separated into 4 treatment groups: (1) dosed with 4 μg of BQ-788-B (Compound 1) intravenously on days 1, 3, 5, 8, 10, 12 and 15 and with 100 μg of an anti-PD-1 agent intraperitoneally on days 1, 4, 9 and 13; (2) dosed with 4 μg of BQ-788-B (Compound 1) intravenously on days 1, 3, 5, 8, 10, 12 and 15; (3) dosed with 100 μg of an anti-PD-1 agent intraperitoneally on days 1, 4, 9 and 13; or (4) untreated control. Tumor volume measurements were taken every two days post treatment.
6 week old female C57BL/6 mice, n=5 per group, were implanted with bladder cancer tumor cells, MB49-PD1RA-220 at the right flank. When tumors reached from about 100 mm^3 in volume, mice were separated into 4 treatment groups: (1) dosed with BQ-788-B (Compound 1) intravenously on days 1, 3, 5, and 8 with 100 μg of an immunotherapeutic agent, namely an anti-PD-1 antibody intraperitoneally on days 1, 4, 9 and 13 (2) dosed with 4 μg of BQ-788-B (Compound 1) intravenously on days 1, 3, 5, and 8 (3) dosed with 100 μg of an anti-PD-1 agent intraperitoneally on days 1, 4, 9 and 13 or (4) untreated control. Tumor volume measurements were taken 3 times per week. The study was terminated on day 8 due to morbidity of control groups.
6 week old female C57BL/6 mice, n=5 per group, were implanted with bladder cancer tumor cells, MB49-PDIRA-220 at the right flank. When tumors reached from about 25 mm^3-50 mm^3 volume, mice were separated into 4 treatment groups: (1) dosed with 4 μg of BQ-788-B (BQ788) intravenously on days 1, 3, 5, and 8 with 100 μg of an anti-PD-1 agent intraperitoneally on days 1, 4, and 9 (2) dosed with 4 μg of BQ-788-B (BQ788) intravenously on days 1, 3, 5, and 8 (3) dosed with 100 μg of an anti-PD-1 agent intraperitoneally on days 1, 4, and 9 or (4) untreated control. Tumor volume measurements were taken 3 times per week. The study was terminated on day 12 due to morbidity of control groups.

[3] = tested on: plasma ET-1; assay: Plasma ET-1 ELISA after IV infusion, indirect measure of ETBR engagement; assay type: in vivo; conditions: rats, 250 μg/kg IV infusion
Method: Plasma concentrations of BQ-788 versus BQ-788-B (COMPOUND 1). […] Briefly, rats (N=4 animals per timepoint) were administered either BQ-788 or the deuterated form, BQ-788-B (COMPOUND 1) at a dose of 250 μg/kg via IV infusion. Plasma samples were collected at various time points and ET-1 ELISA performed. BQ788 and BQ788-B are peptide drugs that are rapidly degraded in plasma and thus drug levels are difficult to detect directly. […] As such, plasma levels of ET-1 are commonly used as an indirect measure of BQ-788 biologic activity.

[4] = target: T1, Recombinant human CXCR4 (Homo sapiens, UniProt P61073); assay: CXCR4 (h) cellular antagonist effect, impedance by dielectric spectroscopy; assay type: cell-based; conditions: CHO cells, stimulated with 1 nM SDF-1α, 28° C
T1 construct: expressed in transfected cells; host or cells: CHO cells
T1 sequence (P61073 whole entry): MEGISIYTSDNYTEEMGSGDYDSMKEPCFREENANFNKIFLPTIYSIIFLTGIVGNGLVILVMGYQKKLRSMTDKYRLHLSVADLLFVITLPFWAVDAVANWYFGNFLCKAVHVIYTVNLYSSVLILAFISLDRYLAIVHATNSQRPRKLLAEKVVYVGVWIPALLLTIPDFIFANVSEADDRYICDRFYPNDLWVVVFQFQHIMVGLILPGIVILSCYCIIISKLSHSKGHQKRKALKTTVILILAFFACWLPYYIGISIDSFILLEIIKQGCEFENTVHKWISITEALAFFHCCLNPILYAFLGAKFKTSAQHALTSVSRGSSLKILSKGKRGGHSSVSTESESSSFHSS
Method: FIGS. 4A and 4B illustrates human (“h”) CXCR inhibitory effects for, A) BQ-788 and B) BQ-788-B (Compound 1), a specifically deuterated ETBR antagonist. Cellular agonist effect was calculated as a % of control response to a known reference agonist for CXCR4 (h), and cellular antagonist effect was calculated as a % inhibition of control reference agonist response for CXCR4.
Determination of CXCR4 inhibitory effect. The inhibitory effect on CXCR4 (h) was determined for BQ-788 (FIG. 4A), and BQ-788-B (COMPOUND 1) (FIG. 4B). Cellular agonist effect was calculated as a % of control response to a known reference agonist for CXCR4 (h), and cellular antagonist effect was calculated as a % inhibition of control reference agonist response for CXCR4. Recombinant human CXCR4 was expressed in CHO cells, and stimulated with 1 nM SDF-1α and incubated at 28° C. Dielectric spectroscopy was used to measure impedance of the cells.

[5] = target: T2, human Endothelin receptor type A (ETA) (Homo sapiens, UniProt P25101); assay: ETA (h) cellular antagonist effect; assay type: cell-based
T2 sequence (P25101 21-427): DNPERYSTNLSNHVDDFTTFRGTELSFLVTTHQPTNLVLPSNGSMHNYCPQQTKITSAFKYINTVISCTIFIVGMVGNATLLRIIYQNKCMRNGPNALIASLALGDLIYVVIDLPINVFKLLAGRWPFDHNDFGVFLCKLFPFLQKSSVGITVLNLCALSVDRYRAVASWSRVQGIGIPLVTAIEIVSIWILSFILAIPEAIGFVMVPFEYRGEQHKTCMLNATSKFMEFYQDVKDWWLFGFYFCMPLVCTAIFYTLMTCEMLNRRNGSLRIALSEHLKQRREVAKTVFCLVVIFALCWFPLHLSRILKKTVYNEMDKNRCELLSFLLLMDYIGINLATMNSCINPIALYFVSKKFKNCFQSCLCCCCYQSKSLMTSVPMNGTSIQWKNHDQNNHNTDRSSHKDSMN
Method: FIGS. 5A and 5B illustrate human (“h”) Endothelin receptor type A (“ETA”) inhibitory effect for A) BQ-788 and B) BQ-788-B (Compound 1), a specifically deuterated ETBR antagonist. Cellular agonist effect was calculated as a % of control response to a known reference agonist for ETA (h), and cellular antagonist effect was calculated as a % inhibition of control reference agonist response for ETA.
Determination of ETA (h) inhibitory effect for BQ-788 and BQ-788-B (COMPOUND 1). […] Cellular agonist effect was calculated as a % of control response to a known reference agonist for ETA (h), and cellular antagonist effect was calculated as a % inhibition of control reference agonist response for ETA.

[6] = combination with anti-PD1, histology 21 days after treatment

| Compound | tumor outcome (volume) ([1]; dabrafenib 30 mg/kg daily oral gavage + anti-PD1 10 mg/kg Q4D IP, 21 days) | effect of adding dabrafenib to anti-PD1/BQ-788-B combination ([1]; triple combination, tumor volume) | interaction with anti-PD1 ([2]; Example 3) | anti-bladder cancer treatment efficacy (tumor volume) ([2]; Example 3: 4 μg IV days 1,3,5,8,10,12,15 + 100 μg anti-PD-1 IP) | interaction with anti-PD1 ([2]; Example 5) | anti-bladder cancer treatment efficacy (tumor volume) ([2]; Example 5: IV days 1,3,5,8 + 100 μg anti-PD-1 IP, tumors about 100 mm^3 at start) | interaction with anti-PD1 ([2]; Example 6) | anti-bladder cancer treatment efficacy (tumor volume) ([2]; Example 6: 4 μg IV days 1,3,5,8 + 100 μg anti-PD-1 IP days 1,4,9) | plasma ET-1 prolonged peak out to [3] | plasma ET-1 response relative to BQ-788 [3] | IC50, CXCR4 (h) inhibitory effect [4] | CD8+ TIL staining distribution ([1]; BQ-788-B 0.6 μg + immune checkpoint inhibitor + dabrafenib, 21 days) | CD8+ TIL staining distribution ([1]; BQ-788-B 4.0 μg + anti-PD1 + dabrafenib, 21 days) | CD8+ TIL staining distribution ([1]; BQ-788-B 100 μg + anti-PD1 + dabrafenib, 21 days) | interaction with anti-PD1 / anti-oncologic agents ([1]; combination therapy, tumor volume) | lymphocyte infiltration of tumor (CD8+, CD4+, Treg staining) [1, 6] | tertiary lymphoid organ (TLO) formation [1, 6] | tumor outcome (volume, IHC) ([1]; deuterated ETBR antagonist 4 μg QOD IV + anti-PD1 10 mg/kg Q4D IP, 21 days) | IC50, ETA (h) inhibitory effect [5] | plasma ET-1 transient peak at [3] |
| --- | --- | --- | --- | --- | --- | --- | --- | --- | --- | --- | --- | --- | --- | --- | --- | --- | --- | --- | --- | --- |
| CC(C)(C)c1nc(-c2cccc(NS(=O)(=O)c3c(F)cccc3F)c2F)c(-c2ccnc(N)n2)s1 [dabrafenib, reference compound] | failed to shrink tumors but demonstrated intermediate tumor growth inhibition | impairs efficacy |  |  |  |  |  |  |  |  |  |  |  |  |  |  |  |  |  |  |
| [2H]CC1CCCC(C[2H])N1C(=O)NC(CC(C)(C)C)C(=O)NC(Cc1cn(C(=O)OC)c2ccccc12)C(=O)NC(CCCC)C(=O)O (stereo not drawn) [BQ-788-B] |  |  | synergy | greatest anti-bladder cancer treatment efficacy | synergy | greatest anti-bladder cancer treatment efficacy | synergy | greatest anti-bladder cancer treatment efficacy | about 3 hours | enhanced duration and amplitude of response; also recorded: enhanced plasma ET-1 concentration | not calculable | diffuse CD8+ TIL staining | peripheral distribution of TILs | peripheral distribution of TILs | synergistic results; also recorded: synergistic activity; also recorded: restores sensitivity to the anti-PD1 antibody | robust infiltration by CD8+ lymphocytes (TILs); also recorded: strong mobilization of lymphocytes to the tumor | most frequently associated with intratumoral TLO formation and tumor reduction; also recorded: induced tertiary lymphoid organ (TLO) formation | tumor shrinkage below baseline; also recorded: tumors had been eradicated leaving only residual adipose tissue; also recorded: eradicated the tumors | not calculable |  |
| CCCC[C@@H](NC(=O)[C@@H](Cc1cn(C(=O)OC)c2ccccc12)NC(=O)[C@H](CC(C)(C)C)NC(=O)N1[C@H](C)CCC[C@@H]1C)C(=O)O [BQ-788, N-[([2R,6S]-2,6-dimethyl-1-piperidinyl)carbonyl]-4-methyl-L-leucyl-N-[(1R)-1-carboxylatopentyl]-1-[methoxycarbonyl]-D-tryptophanamide, reference compound] |  |  |  |  |  |  |  |  |  |  |  |  |  |  |  |  |  |  | not calculable | about 30 minutes |
